Test results published in PMC9848257, “Design and synthesis of novel rigid dibenzo[b,f]azepines through ring closure technique as promising anticancer candidates against leukaemia and acting as selective topoisomerase II inhibitors and DNA intercalators” (Journal of Enzyme Inhibition and Medicinal Chemistry, 2023).

How the values were obtained:
Type in all cases: cell-based
SK-MEL-2 = assay: NCI-60 one-dose screen, SK-MEL-2; conditions: Homo sapiens; SK-MEL-2, melanoma; single dose 10 μM; read-out: Growth inhibition %
Description: (§1) Anti-proliferative effects of the counterparts 4a–g and 5a–g were screened against 60 human cancer cell lines, following the Developmental Therapeutics Program protocol, National Cancer Institute[35].
(§2) The anti-tumour activity of the fourteen synthesised congeners was investigated at the NCI against a panel of 60 cancer cell lines (NCI-60 Cell One-Dose Screen). The tested dibenzo[b,f]azepine derivatives were screened at a single dose level (10 μM), Table 1.

MDA-MB-468 = assay: NCI-60 one-dose screen, MDA-MB-468; conditions: Homo sapiens; MDA-MB-468, breast cancer; single dose 10 μM; read-out: Growth inhibition %
Description: as §1, §2

RXF 393 = assay: NCI-60 one-dose screen, RXF 393; conditions: Homo sapiens; RXF 393, renal cancer; single dose 10 μM; read-out: Growth inhibition %
Description: as §1, §2

MALME-3M = assay: NCI-60 one-dose screen, MALME-3M; conditions: Homo sapiens, melanoma, single dose 10 μM, read-out: Growth inhibition %
Description: as §1, §2

MDA-MB-231-ATCC = assay: NCI-60 one-dose screen, MDA-MB-231-ATCC; conditions: Homo sapiens, breast cancer, single dose 10 μM, read-out: Growth inhibition %
Description: as §1, §2

NCI-H322M = assay: NCI-60 one-dose screen, NCI-H322M; conditions: Homo sapiens, non-small cell lung cancer, single dose 10 μM, read-out: Growth inhibition %
Description: as §1, §2

OVCAR-4 = assay: NCI-60 one-dose screen, OVCAR-4; conditions: Homo sapiens; OVCAR-4, ovarian cancer; single dose 10 μM; read-out: Growth inhibition %
Description: as §1, §2

UACC-257 = assay: NCI-60 one-dose screen, UACC-257; conditions: Homo sapiens; UACC-257, melanoma; single dose 10 μM; read-out: Growth inhibition %
Description: as §1, §2

NCI-H226 = assay: NCI-60 one-dose screen, NCI-H226; conditions: Homo sapiens; NCI-H226, non-small cell lung cancer; single dose 10 μM; read-out: Growth inhibition %
Description: as §1, §2

SF-295 = assay: NCI-60 one-dose screen, SF-295; conditions: Homo sapiens; SF-295, CNS cancer; single dose 10 μM; read-out: Growth inhibition %
Description: as §1, §2

T-47D = assay: NCI-60 one-dose screen, T-47D; conditions: Homo sapiens, T47D, breast cancer, single dose 10 μM, read-out: Growth inhibition %
Description: as §1, §2

OVCAR-8 = assay: NCI-60 one-dose screen, OVCAR-8; conditions: Homo sapiens; OVCAR-8, ovarian cancer; single dose 10 μM; read-out: Growth inhibition %
Description: as §1, §2

COLO 205 = assay: NCI-60 one-dose screen, COLO 205; conditions: Homo sapiens; COLO 205, colon cancer; single dose 10 μM; read-out: Growth inhibition %
Description: as §1, §2

OVCAR-3 = assay: NCI-60 one-dose screen, OVCAR-3; conditions: Homo sapiens; OVCAR-3, ovarian cancer; single dose 10 μM; read-out: Growth inhibition %
Description: as §1, §2

HL-60(TB) = assay: NCI-60 one-dose screen, HL-60(TB); conditions: Homo sapiens, leukaemia, single dose 10 μM, read-out: Growth inhibition %
Description: as §1, §2

M14 = assay: NCI-60 one-dose screen, M14; conditions: Homo sapiens; M14, melanoma; single dose 10 μM; read-out: Growth inhibition %
Description: as §1, §2

HS 578 T = assay: NCI-60 one-dose screen, HS 578 T; conditions: Homo sapiens, breast cancer, single dose 10 μM, read-out: Growth inhibition %
Description: as §1, §2

A549-ATCC = assay: NCI-60 one-dose screen, A549-ATCC; conditions: Homo sapiens, non-small cell lung cancer, single dose 10 μM, read-out: Growth inhibition %
Description: as §1, §2

SK-OV-3 = assay: NCI-60 one-dose screen, SK-OV-3; conditions: Homo sapiens; SK-OV-3, ovarian cancer; single dose 10 μM; read-out: Growth inhibition %
Description: as §1, §2

NCI-H23 = assay: NCI-60 one-dose screen, NCI-H23; conditions: Homo sapiens; NCI-H23, non-small cell lung cancer; single dose 10 μM; read-out: Growth inhibition %
Description: as §1, §2

KM12 = assay: NCI-60 one-dose screen, KM12; conditions: Homo sapiens; KM12, colon cancer; single dose 10 μM; read-out: Growth inhibition %
Description: as §1, §2

ACHN = assay: NCI-60 one-dose screen, ACHN; conditions: Homo sapiens, renal cancer, single dose 10 μM, read-out: Growth inhibition %
Description: as §1, §2

SF-268 = assay: NCI-60 one-dose screen, SF-268; conditions: Homo sapiens; SF-268, CNS cancer; single dose 10 μM; read-out: Growth inhibition %
Description: as §1, §2

CCRF-CEM = assay: NCI-60 one-dose screen, CCRF-CEM; conditions: Homo sapiens, leukaemia, single dose 10 μM, read-out: Growth inhibition %
Description: as §1, §2

SW-620 = assay: NCI-60 one-dose screen, SW-620; conditions: Homo sapiens; SW-620, colon cancer; single dose 10 μM; read-out: Growth inhibition %
Description: as §1, §2

SF-539 = assay: NCI-60 one-dose screen, SF-539; conditions: Homo sapiens; SF-539, CNS cancer; single dose 10 μM; read-out: Growth inhibition %
Description: as §1, §2

HT29 = assay: NCI-60 one-dose screen, HT29; conditions: Homo sapiens, HT-29; HT29, colon cancer; single dose 10 μM; read-out: Growth inhibition %
Description: as §1, §2

HOP-62 = assay: NCI-60 one-dose screen, HOP-62; conditions: Homo sapiens; HOP-62, non-small cell lung cancer; single dose 10 μM; read-out: Growth inhibition %
Description: as §1, §2

K-562 = assay: NCI-60 one-dose screen, K-562; conditions: Homo sapiens, K562; K-562, leukaemia; single dose 10 μM; read-out: Growth inhibition %
Description: as §1, §2

A498 = assay: NCI-60 one-dose screen, A498; conditions: Homo sapiens; A498, renal cancer; single dose 10 μM; read-out: Growth inhibition %
Description: as §1, §2

HCT-15 = assay: NCI-60 one-dose screen, HCT-15; conditions: Homo sapiens; HCT-15, colon cancer; single dose 10 μM; read-out: Growth inhibition %
Description: as §1, §2

SK-MEL-5 = assay: NCI-60 one-dose screen, SK-MEL-5; conditions: Homo sapiens; SK-MEL-5, melanoma; single dose 10 μM; read-out: Growth inhibition %
Description: as §1, §2

LOX IMVI = assay: NCI-60 one-dose screen, LOX IMVI; conditions: Homo sapiens, melanoma, single dose 10 μM, read-out: Growth inhibition %
Description: as §1, §2

DU-145 = assay: NCI-60 one-dose screen, DU-145; conditions: Homo sapiens; DU-145, prostate cancer; single dose 10 μM; read-out: Growth inhibition %
Description: as §1, §2

CAKI-1 = assay: NCI-60 one-dose screen, CAKI-1; conditions: Homo sapiens; CAKI-1, renal cancer; single dose 10 μM; read-out: Growth inhibition %
Description: as §1, §2

## O=C(Cc1ccccc1)NNC(=O)N1c2ccccc2C=Cc2ccccc21 [Compound 4g, N′-(2-Phenylacetyl)-5H-dibenzo[b,f]azepine-5-carbohydrazide]
SK-MEL-2
  inhibition at 10 µM: < 10%
MDA-MB-468
  inhibition at 10 µM: < 10%
RXF 393
  inhibition at 10 µM: < 10%
MALME-3M
  inhibition at 10 µM: < 10%
MDA-MB-231-ATCC
  inhibition at 10 µM: < 10%
NCI-H322M
  inhibition at 10 µM: < 10%
OVCAR-4
  inhibition at 10 µM: < 10%
UACC-257
  inhibition at 10 µM: < 10%
NCI-H226
  inhibition at 10 µM: < 10%
SF-295
  inhibition at 10 µM: < 10%
T-47D
  inhibition at 10 µM: < 10%
OVCAR-8
  inhibition at 10 µM: < 10%
COLO 205
  inhibition at 10 µM: < 10%
OVCAR-3
  inhibition at 10 µM: < 10%
HL-60(TB)
  inhibition at 10 µM: < 10%
M14
  inhibition at 10 µM: < 10%
HS 578 T
  inhibition at 10 µM: < 10%
A549-ATCC
  inhibition at 10 µM: < 10%
SK-OV-3
  inhibition at 10 µM: < 10%
NCI-H23
  inhibition at 10 µM: < 10%
KM12
  inhibition at 10 µM: < 10%
ACHN
  inhibition at 10 µM: < 10%
SF-268
  inhibition at 10 µM: < 10%
CCRF-CEM
  inhibition at 10 µM: < 10%
SW-620
  inhibition at 10 µM: < 10%
SF-539
  inhibition at 10 µM: < 10%
HT29
  inhibition at 10 µM: < 10%
HOP-62
  inhibition at 10 µM: < 10%
K-562
  inhibition at 10 µM: < 10%
A498
  inhibition at 10 µM: < 10%
HCT-15
  inhibition at 10 µM: < 10%
SK-MEL-5
  inhibition at 10 µM: < 10%
LOX IMVI
  inhibition at 10 µM: < 10%
DU-145
  inhibition at 10 µM: < 10%
CAKI-1
  inhibition at 10 µM: < 10%

## O=C(NNC(=O)N1c2ccccc2C=Cc2ccccc21)c1ccc(Br)cc1 [Compound 4b, N′-(4-Bromobenzoyl)-5H-dibenzo[b,f]azepine-5-carbohydrazide]
SK-MEL-2
  inhibition at 10 µM: < 10%
MDA-MB-468
  inhibition at 10 µM: < 10%
RXF 393
  inhibition at 10 µM: < 10%
MALME-3M
  inhibition at 10 µM: < 10%
MDA-MB-231-ATCC
  inhibition at 10 µM: < 10%
NCI-H322M
  inhibition at 10 µM: < 10%
OVCAR-4
  inhibition at 10 µM: < 10%
UACC-257
  inhibition at 10 µM: 14.4%
NCI-H226
  inhibition at 10 µM: < 10%
SF-295
  inhibition at 10 µM: < 10%
T-47D
  inhibition at 10 µM: < 10%
OVCAR-8
  inhibition at 10 µM: < 10%
COLO 205
  inhibition at 10 µM: < 10%
OVCAR-3
  inhibition at 10 µM: < 10%
HL-60(TB)
  inhibition at 10 µM: < 10%
M14
  inhibition at 10 µM: < 10%
HS 578 T
  inhibition at 10 µM: < 10%
A549-ATCC
  inhibition at 10 µM: 18.5%
SK-OV-3
  inhibition at 10 µM: < 10%
NCI-H23
  inhibition at 10 µM: < 10%
KM12
  inhibition at 10 µM: < 10%
ACHN
  inhibition at 10 µM: 14%
SF-268
  inhibition at 10 µM: 15.1%
CCRF-CEM
  inhibition at 10 µM: < 10%
SW-620
  inhibition at 10 µM: 11.8%
SF-539
  inhibition at 10 µM: < 10%
HT29
  inhibition at 10 µM: < 10%
HOP-62
  inhibition at 10 µM: < 10%
K-562
  inhibition at 10 µM: < 10%
A498
  inhibition at 10 µM: < 10%
HCT-15
  inhibition at 10 µM: < 10%
SK-MEL-5
  inhibition at 10 µM: < 10%
LOX IMVI
  inhibition at 10 µM: < 10%
DU-145
  inhibition at 10 µM: 19.7%
CAKI-1
  inhibition at 10 µM: < 10%

## Brc1ccc(-c2nnc(N3c4ccccc4C=Cc4ccccc43)o2)cc1 [Compound 5b, 2-(4-Bromophenyl)-5-(5H-dibenzo[b,f]azepin-5-yl)-1,3,4-oxadiazole]
SK-MEL-2
  inhibition at 10 µM: < 10%
MDA-MB-468
  inhibition at 10 µM: 17.8%
RXF 393
  inhibition at 10 µM: 24.9%
MALME-3M
  inhibition at 10 µM: < 10%
MDA-MB-231-ATCC
  inhibition at 10 µM: 22.3%
NCI-H322M
  inhibition at 10 µM: < 10%
OVCAR-4
  inhibition at 10 µM: 19.6%
UACC-257
  inhibition at 10 µM: < 10%
NCI-H226
  inhibition at 10 µM: 28.3%
SF-295
  inhibition at 10 µM: 30.4%
T-47D
  inhibition at 10 µM: 21.5%
OVCAR-8
  inhibition at 10 µM: 28.6%
COLO 205
  inhibition at 10 µM: 15.4%
OVCAR-3
  inhibition at 10 µM: < 10%
HL-60(TB)
  inhibition at 10 µM: 34.6%
M14
  inhibition at 10 µM: < 10%
HS 578 T
  inhibition at 10 µM: 14.4%
A549-ATCC
  inhibition at 10 µM: 29.8%
SK-OV-3
  inhibition at 10 µM: < 10%
NCI-H23
  inhibition at 10 µM: < 10%
KM12
  inhibition at 10 µM: 21.4%
ACHN
  inhibition at 10 µM: 24.8%
SF-268
  inhibition at 10 µM: 24.7%
CCRF-CEM
  inhibition at 10 µM: 37.3%
SW-620
  inhibition at 10 µM: < 10%
SF-539
  inhibition at 10 µM: 17.2%
HT29
  inhibition at 10 µM: 18.4%
HOP-62
  inhibition at 10 µM: 22.7%
K-562
  inhibition at 10 µM: 54.5%
A498
  inhibition at 10 µM: 13.4%
HCT-15
  inhibition at 10 µM: 66.5%
SK-MEL-5
  inhibition at 10 µM: 53.2%
LOX IMVI
  inhibition at 10 µM: 38.8%
DU-145
  inhibition at 10 µM: < 10%
CAKI-1
  inhibition at 10 µM: 31.9%
